This note sets out measurements from patent US7223759B2, “Antibacterial 3,5-diaminopiperidine-substituted aromatic and heteroaromatic compounds” (Anadys Pharmaceuticals, Inc., priority 2003, dated 2007).

One test concerns Escherichia coli (ATCC25922) or Staphylococcus aureus (ATCC25923). As to the kind of experiment: Antibacterial MIC, microdilution method in Mueller-Hinton medium. It is filed as cell-based. As to conditions: Escherichia coli, 18 h, MIC in E. coli or S. aureus; two-fold serial dilutions 64 to 0.5 μg/ml in duplicate; 18 hours of incubation at 35° C.; read-out: Potency (MIC). A digest of the protocol: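 Two-fold serial dilutions from 64 to 0.5 μg/ml, in duplicate, by broth microdilution in Mueller-Hinton medium (NCCLS M7-A5). MIC taken as the lowest concentration preventing visible growth after 18 h at 35° C.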
On to `Cl.O=C(Nc1ccc(Nc2nc(N3CCCCC3)nc(N3CCCCC3)n2)cc1Cl)c1ccc(F)c(F)c1O` [N-[3-chloro-4-(3,4-difluoro-2-hydroxy-benzoylamino)-pheny]-4,6-Bis-((3R,5S)-3,5-diamino-piperidin-1-yl)-[1,3,5]triazine-2-ammine], for which the minimal inhibitory concentration (MIC) is below 16 µg/mL.

Consider `Cc1ccc(C(=O)Nc2ccc(Nc3nc(N4C[C@H](N)C[C@H](N)C4)nc(N4C[C@H](N)C[C@H](N)C4)n3)cc2O)c(O)c1` [N-[3-hydroxy-4-(2-hydroxy-4-methyl-benzoylamino)-phenyl]-4,6-Bis-((3R,5S)-3,5-diamino-piperidin-1-yl)-[1,3,5]triazine-2-amine], for which the MIC was below 16 µg/mL.

For `COCCNC(=O)c1ccc(Nc2nc(N3C[C@H](N)C[C@H](N)C3)nc(N3C[C@H](N)C[C@H](N)C3)n2)cc1O` [N-[3-hydroxy-4-(2-methoxy-ethylcarbamoyl)-phenyl]-4,6-Bis-((3R,5S)-3,5-diamino-piperidin-1-yl)-[1,3,5]triazine-2-amine], the MIC is above 64 µg/mL.

With `COc1cc(NC(=O)c2ccc(Nc3nc(N4CCCCC4)nc(N4CCCCC4)n3)cc2O)cc(OC)c1OC.Cl` [N-[3-hydroxy-4-(3,4,5-trimethoxy-phenylcarbamoyl)-phenyl]-4,,6-Bis-((3R,5S)-33,5-diamino-piperidin-1-yl)-[1,3,5]triazine-2-amine], the MIC is below 64 µg/mL.

As for `CC(C)CC(=O)Nc1ccc(Nc2nc(N3CCCCC3)nc(N3CCCCC3)n2)cc1O.Cl` [N-[3-hydroxy-4-(3-methyl-butyrylamino)-phenylk]-4,6-Bis-((3R,5S)-3,5-diamino-piperidin-1-yl)-[1,3,5]triazine-2-amine], the MIC is below 64 µg/mL.

The same test, now with this note: Escherichia coli, 18 h, read-out: Potency (MIC).
`N[C@@H]1C[C@H](N)CN(c2nc(Nc3cc(Cl)c(NC(=O)c4ccc(Cl)cc4O)c(Cl)c3)nc(N3C[C@H](N)C[C@H](N)C3)n2)C1` [N-[3,5-dichloro-4-(4-chloro-2-hydroxy-benzoylamino)-phenyl]-4,6-Bis-((3R,5S)-3,5-diamino-piperidin-1-yl)-[1,3,5]triazine-2-amine]: the minimum inhibitory concentration (MIC) was below 16 µg/mL.

In the case of `N[C@@H]1C[C@H](N)CN(c2nc(Nc3cccc(NC(=O)c4cccc(O)c4O)c3)nc(N3C[C@H](N)C[C@H](N)C3)n2)C1` [N-[3-(2,3-dihydroxy-benzoylamino)-phenyl]-4,6-Bis-((3R,5S)-3,5-diamino-piperidin-1-yl)-[1,3,5]triazine-2-amine], the MIC is below 16 µg/mL.

Consider `N[C@@H]1C[C@H](N)CN(c2nc(Nc3cccc(NC(=O)c4ccc(O)cc4O)c3)nc(N3C[C@H](N)C[C@H](N)C3)n2)C1` [N-[3-(2,4-dihydroxy-benzoylamino)-phenyl]-4,6-Bis-((3R,5S)-3,5-diamino-piperidin-1-yl)-[1,3,5]triazine-2-amine], for which the minimal inhibitory concentration (MIC) is below 16 µg/mL.

Consider `CCn1c(-c2cccc(Nc3nc(N4C[C@H](N)C[C@H](N)C4)nc(N4C[C@H](N)C[C@H](N)C4)n3)c2)cc(=O)n1-c1ccccc1` [N-[3-(2-ethyl-5-oxo-1-phenyl-2,5-dihydro-1H-pyrazol-3-yl)-phenyl]-4,6-Bis-((3R,5S)-3,5-diamino-piperidin-1-yl)-[1,3,5]triazine-2-amine], for which the minimum inhibitory concentration (MIC) was above 64 µg/mL.

As to `Cc1cccc(C(=O)Nc2cccc(Nc3nc(N4C[C@H](N)C[C@H](N)C4)nc(N4C[C@H](N)C[C@H](N)C4)n3)c2)c1O` [N-[3-(2-hydroxy-3-methyl-benzoylamino)-phenyl]-4,6-Bis-((3R,5S)-3,5-diamino-piperidin-1-yl)-[1,3,5]triazine-2-amine], the minimum inhibitory concentration (MIC) was below 16 µg/mL.

On to `N[C@@H]1C[C@H](N)CN(c2nc(Nc3cccc(NC(=O)c4cccc([N+](=O)[O-])c4O)c3)nc(N3C[C@H](N)C[C@H](N)C3)n2)C1` [N-[3-(2-hydroxy-3-nitro-benzoylamino)-phenyl]-4,6-Bis-((3R,5S)-3,5-diamino-piperidin-1-yl)-[1,3,5]triazine-2-amine], for which the MIC is below 16 µg/mL.

As for `Cc1ccc(C(=O)Nc2cccc(Nc3nc(N4C[C@H](N)C[C@H](N)C4)nc(N4C[C@H](N)C[C@H](N)C4)n3)c2)c(O)c1` [N-[3-(2-hydroxy-4-methyl-benzoylamino)-phenyl]-4,6-Bis-((3R,5S)-3,5-diamino-piperidin-1-yl)-[1,3,5]triazine-2-amine], the MIC is below 64 µg/mL.

`N[C@@H]1C[C@H](N)CN(c2nc(Nc3cccc(NC(=O)c4ccc(Cl)cc4O)c3)nc(N3C[C@H](N)C[C@H](N)C3)n2)C1` [N-[3-(4-chloro-2-hydroxy-benzoylamino)-phenyl]-4,6-Bis-((3R,5S)-3,5-diamino-piperidin-1-yl)-[1,3,5]triazine-2-amine]: the minimal inhibitory concentration (MIC) is below 16 µg/mL.

In the case of `N[C@@H]1C[C@H](N)CN(c2nc(Nc3ccc(NC(=O)c4ccc(Cl)cc4O)c(Br)c3)nc(N3C[C@H](N)C[C@H](N)C3)n2)C1` [N-[3-bromo-4-(4-chloro-2-hydroxy-benzoylamino)-phenyl]-4,6-Bis-((3R,5S)-3,5-diamino-piperidin-1-yl)-[1,3,5]triazine-2-amine], the minimum inhibitory concentration (MIC) was below 16 µg/mL.

Turning to `COc1cccc(C(=O)Nc2ccc(Nc3nc(N4C[C@H](N)C[C@H](N)C4)nc(N4C[C@H](N)C[C@H](N)C4)n3)cc2Cl)c1O` [N-[3-chloro-4-(2-hydroxy-3-methoxy-benzoylamino)-phenyl]-4,6-Bis-((3R,5S)-3,5-diamino-piperidin-1-yl)-[1,3,5]triazine-2-amine], the MIC was below 16 µg/mL.

With `Cc1cc(Nc2nc(N3C[C@H](N)C[C@H](N)C3)nc(N3C[C@H](N)C[C@H](N)C3)n2)cc(Cl)c1NC(=O)c1ccc(Cl)cc1O` [N-[3-chloro-4-(4-chloro-2-hydroxy-benzoylamino)-5-methyl-phenyl]-4,6-Bis-((3R,5S)-3,5-diamino-piperidin-1-yl)-[1,3,5]triazine-2-amine], the MIC was below 16 µg/mL.

Regarding `N[C@@H]1C[C@H](N)CN(c2nc(Nc3ccc(NC(=O)c4ccc(Cl)cc4O)c(Cl)c3)nc(N3C[C@H](N)C[C@H](N)C3)n2)C1` [N-[3-chloro-4-(4-chloro-2-hydroxy-benzoylamino)-phenyl]-4,6-Bis-((3R,5S)-3,5-diamino-piperidin-1-yl)-[1,3,5]triazine-2-amine], the MIC is below 16 µg/mL.

`N[C@@H]1C[C@H](N)CN(c2nc(Nc3ccc(NC(=O)c4ccc(F)cc4O)c(Cl)c3)nc(N3C[C@H](N)C[C@H](N)C3)n2)C1` [N-[3-chloro-4-(4-fluoro-2-hydroxy-benzoylamino)-phenyl]-4,6-Bis-((3R,5S)-3,5-diamino-piperidin-1-yl)-[1,3,5]triazine-2-amine]: the MIC is above 64 µg/mL.

As for `COc1ccc(C(=O)Nc2ccc(Nc3nc(N4C[C@H](N)C[C@H](N)C4)nc(N4C[C@H](N)C[C@H](N)C4)n3)cc2O)c(O)c1OC` [N-[3-hydroxy-4-(2-hydroxy-3,4-dimethoxy-benzoylamino)-phenyl]-4,6-Bis-((3R,5S)-3,5-diamino-piperidin-1-yl)-[1,3,5]triazine-2-amine], the MIC is below 64 µg/mL.

As to `CC(C)c1cc(C(=O)Nc2ccc(Nc3nc(N4C[C@H](N)C[C@H](N)C4)nc(N4C[C@H](N)C[C@H](N)C4)n3)cc2O)c(O)c(C(C)C)c1` [N-[3-hydroxy-4-(2-hydroxy-3,5-diisopropyl-benzoylamino)-phenyl]-4,6-Bis-((3R,5S)-3,5-diamino-piperidin-1-yl)-[1,3,5]triazine-2-amine], the MIC was below 16 µg/mL.

As for `COc1cccc(C(=O)Nc2ccc(Nc3nc(N4C[C@H](N)C[C@H](N)C4)nc(N4C[C@H](N)C[C@H](N)C4)n3)cc2O)c1O` [N-[3-hydroxy-4-(2-hydroxy-3-methoxy-benzoylamino)-phenyl]-4,6-Bis-((3R,5S)-3,5-diamino-piperidin-1-yl)-[1,3,5]triazine-2-amine], the minimum inhibitory concentration (MIC) was below 16 µg/mL.

For `Cc1cccc(C(=O)Nc2ccc(Nc3nc(N4C[C@H](N)C[C@H](N)C4)nc(N4C[C@H](N)C[C@H](N)C4)n3)cc2O)c1O` [N-[3-hydroxy-4-(2-hydroxy-3-methyl-benzoylamino)-phenyl]-4,6-Bis-((3R,5S)-3,5-diamino-piperidin-1-yl)-[1,3,5]triazine-2-amine], the MIC is below 16 µg/mL.

For the compound `COc1ccc(O)c(C(=O)Nc2ccc(Nc3nc(N4C[C@H](N)C[C@H](N)C4)nc(N4C[C@H](N)C[C@H](N)C4)n3)cc2O)c1` [N-[3-hydroxy-4-(2-hydroxy-5-methoxy-benzoylamino)-phenyl]-4,6-Bis-((3R,5S)-3,5-diamino-piperidin-1-yl)-[1,3,5]triazine-2-amine], the minimal inhibitory concentration (MIC) was below 16 µg/mL.

Take `N[C@@H]1C[C@H](N)CN(c2nc(Nc3ccc(NC(=O)c4cc(OC(F)(F)F)ccc4O)c(O)c3)nc(N3C[C@H](N)C[C@H](N)C3)n2)C1` [N-[3-hydroxy-4-(2-hydroxy-5-trifluoromethoxy-benzoylamino)-phenyl]-4,6-Bis-((3R,5S)-3,5-diamino-piperidin-1-yl)-[1,3,5]triazine-2-amine]: the MIC is below 16 µg/mL.

Regarding `COc1ccccc1C(=O)Nc1ccc(Nc2nc(N3C[C@H](N)C[C@H](N)C3)nc(N3C[C@H](N)C[C@H](N)C3)n2)cc1O` [N-[3-hydroxy-4-(2-methoxy-benzoylamino)-phenyl]-4,6-Bis-((3R,5S)-3,5-diamino-piperidin-1-yl)-[1,3,5]triazine-2-amine], the minimal inhibitory concentration (MIC) is below 16 µg/mL.

As for `N[C@@H]1C[C@H](N)CN(c2nc(Nc3ccc(C(=O)Nc4cccc(CO)c4)c(O)c3)nc(N3C[C@H](N)C[C@H](N)C3)n2)C1` [N-[3-hydroxy-4-(3-hydroxymethyl-phenylcarbamoyl)-phenyl]-4,6-Bis-((3R,5S)-3,5-diamino-piperidin-1-yl)-[1,3,5]triazine-2-amine], the MIC was below 64 µg/mL.

In the case of `COc1cccc(S(=O)(=O)Nc2ccc(Nc3nc(N4C[C@H](N)C[C@H](N)C4)nc(N4C[C@H](N)C[C@H](N)C4)n3)cc2O)c1` [N-[3-hydroxy-4-(3-methoxy-benzenesulfonylamino)-phenyl]-4,6-Bis-((3R,5S)-3,5-diamino-piperidin-1-yl)-[1,3,5]triazine-2-amine], the MIC was below 64 µg/mL.
